From PubChem BioAssay (NCI)
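Where inhibition never reached the appropriate level, the endpoint shown equals the highest concentration tested. Otherwise, values were interpolated linearly from a five-concentration, 48-hour dose response in 96-well plates. GI50: concentration for 50% inhibition of growth. TGI: total growth inhibition.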

Legend:
Assay in all cases: NCI tumour cell line growth inhibition, 48 h
A498 renal = test system: A498 renal
OVCAR-5 ovarian = test system: OVCAR-5 ovarian
SNB-19 CNS = test system: SNB-19 CNS
HS 578T breast = test system: HS 578T breast
MCF7 breast = test system: MCF7 breast
UACC-62 melanoma = test system: UACC-62 melanoma
MDA-MB-231 breast = test system: MDA-MB-231 breast
TK-10 renal = test system: TK-10 renal
KM12 colon = test system: KM12 colon
PC-3 prostate = test system: PC-3 prostate
SN12C renal = test system: SN12C renal
MOLT-4 leukemia = test system: MOLT-4 leukemia
HL-60(TB) leukemia = test system: HL-60(TB) leukemia
NCI-H226 lung = test system: NCI-H226 lung
RXF 393 renal = test system: RXF 393 renal
UACC-257 melanoma = test system: UACC-257 melanoma
786-0 renal = test system: 786-0 renal
SK-MEL-5 melanoma = test system: SK-MEL-5 melanoma
EKVX NSCLC = test system: EKVX NSCLC
UO-31 renal = test system: UO-31 renal
CCRF-CEM leukemia = test system: CCRF-CEM leukemia
SK-MEL-28 melanoma = test system: SK-MEL-28 melanoma
SW-620 colon = test system: SW-620 colon
IGROV1 ovarian = test system: IGROV1 ovarian
MDA-MB-435 = test system: MDA-MB-435

Cc1cccc(NC2=C(Cl)C(=O)N(Cc3ccc(Cl)cc3)C2=O)c1
GI50 (A498 renal): 2000 nM
TGI (A498 renal): 5.14 µM
GI50 (OVCAR-5 ovarian): 28 µM
TGI (OVCAR-5 ovarian): 74.5 µM
GI50 (SNB-19 CNS): 2940 nM
TGI (SNB-19 CNS): 25.8 µM
GI50 (HS 578T breast): 7.35 µM
TGI (HS 578T breast): 37.3 µM
GI50 (MCF7 breast): 3.17 µM
TGI (MCF7 breast): > 100 µM
GI50 (UACC-62 melanoma): 4.89 µM
TGI (UACC-62 melanoma): 29.9 µM
GI50 (MDA-MB-231 breast): 2270 nM
TGI (MDA-MB-231 breast): 8.77 µM
GI50 (TK-10 renal): 3.8 µM
TGI (TK-10 renal): 21 µM
GI50 (KM12 colon): 3.27 µM
TGI (KM12 colon): 16.9 µM
GI50 (PC-3 prostate): 2100 nM
TGI (PC-3 prostate): 8.67 µM
GI50 (SN12C renal): 4.37 µM
TGI (SN12C renal): 43.6 µM
GI50 (MOLT-4 leukemia): 3.14 µM
TGI (MOLT-4 leukemia): 12.4 µM
GI50 (HL-60(TB) leukemia): 4.83 µM
TGI (HL-60(TB) leukemia): 20.3 µM
GI50 (NCI-H226 lung): 1200 nM
TGI (NCI-H226 lung): 8.04 µM
GI50 (RXF 393 renal): 7.72 µM
TGI (RXF 393 renal): 27.6 µM
GI50 (UACC-257 melanoma): 16.6 µM
TGI (UACC-257 melanoma): 47.9 µM
GI50 (786-0 renal): 2160 nM
TGI (786-0 renal): 14.8 µM
GI50 (SK-MEL-5 melanoma): 2230 nM
TGI (SK-MEL-5 melanoma): 7.76 µM
GI50 (EKVX NSCLC): 7.15 µM
TGI (EKVX NSCLC): 27.1 µM
GI50 (UO-31 renal): 11.9 µM
TGI (UO-31 renal): > 100 µM
GI50 (CCRF-CEM leukemia): 214 nM
TGI (CCRF-CEM leukemia): 1780 nM
GI50 (SK-MEL-28 melanoma): 3.88 µM
TGI (SK-MEL-28 melanoma): 22.8 µM
GI50 (SW-620 colon): 2230 nM
TGI (SW-620 colon): 12.9 µM
GI50 (IGROV1 ovarian): 2250 nM
TGI (IGROV1 ovarian): 12.1 µM
GI50 (MDA-MB-435): 4.74 µM
TGI (MDA-MB-435): 19 µM
